In patent US9675699B2, “Cooling enhancing compositions” (International Flavors & Fragrances Inc., priority 2011, dated 2017):

What was measured:
cooling strength = conditions: with respect to WS-3 = 10.0; cited from earlier work
[1] = test system: cooling profile of menthol; test: Example II: cooling profile versus 5 ppm menthol control, group of five trained panelists; type: in vivo, human; conditions: for Average Increase: versus 5 ppm menthol control
Method: Responsible actives were determined by comparing the cooling profile of menthol alone (the control) against the solutions with either menthol or cooling enhancing compositions or menthol with the active(s). The profile attributes consist of onset, location, intensity and duration of cooling. Control: 5mg menthol/1 Liter of water (=5 ppm) The use level of 5 ppm is a standard use level within our research facility when looking for cooling enhancement. The levels of the actives were determined after tasting them at varying concentrations within the range of 1 ppm to 200 ppm. The levels presented were deemed to be optimal by offering the greatest functionality. The cooling enhancing compositions listed below were dosed on top of the menthol control. The results below were obtained by a group of five trained panelists.)

cooling = test: Inherent cooling of materials tasted alone in water; type: in vivo, human
[2] = 5 ppm Menthol + 50 ppm test substance in water
[3] = 5 ppm Menthol + 50 ppm test substance

CNC(=O)C1C(C)CCCC1(C)C (stereo not drawn) [N,2,2,6-Tetramethylcyclohexane-l-carboxamide]
relative cooling strength (cooling strength): about 1.0

CNC(=O)C(C)(C(C)C)C(C)C [WS-23]
relative cooling strength (cooling strength): about 5.0

O=c1cc(-c2ccc(O)c(O)c2)oc2cc(O)cc(O)c12 [Luteolin]
Taste Descriptors [1, 2]: Equivalent cooling as compared to control, localized on front tip of tongue, gums and roof of mouth, did not expedite onset but smoothed upfront mouthfeel, slight irritation to tongue and back of mouth/ throat cavity | Average Increase [1, 3]: 32% | inherent cooling (taste observation) (cooling; 50 ppm in water): slightly stale flavor, no cooling

CC1CCC(C(C)C)C(OC(=O)C(C)O)C1 (stereo not drawn) [Menthyl Lactate]
relative cooling strength (cooling strength): about 2.9

CC(C)[C@@H]1CC[C@@H](C)C[C@H]1C(=O)NC(C)(C)C [WS-14]
relative cooling strength (cooling strength): about 5.0

CC1CCC(C(C)C)C(C(=O)OCC(O)CO)C1 (stereo not drawn) [WS-30]
relative cooling strength (cooling strength): about 1.5

CC(C)[C@@H]1CC[C@@H](C)C[C@H]1OC(=O)CCCC(=O)O [monomenthyl glutarate]
relative cooling strength (cooling strength): about 3.5

O=C1C[C@@H](c2ccc(O)c(O)c2)Oc2cc(O)cc(O)c21 [Eriodictyol]
Taste Descriptors [1, 2]: Cooling localized on middle of tongue stronger than control, more intense in back of throat on breath-in, does not trigger a faster onset, cooling builds more after expectorating and on breath-in, sharpened the intensity of cooling in the center and sides of tongue and roof of mouth | Average Increase [1, 3]: 56% | inherent cooling (taste observation) (cooling; 35 ppm in water): slight irritation (piperin-like burn) without cooling

CC1CCC(C(C)C)C(O)C1 (stereo not drawn) [Menthol]
Taste Descriptors ([1]; 5 ppm Menthol alone in water (control)): thin and moderate cooling, slight burn, some bitterness, cooling on front, tip of tongue and gums, mild cooling on breath-in, slightly harsh and sharp

COc1cc([C@@H]2CC(=O)c3c(O)cc(O)cc3O2)ccc1O [Homoeriodictyol]
Taste Descriptors ([1]; 5 ppm Menthol + 5 ppm test substance in water): faster onset of cooling than menthol alone, cooling localized on front of tongue, cold as in temperature, slight teeth cooling, fully delocalized cooling after 10 seconds reaching back of throat and roof of mouth, mild cooling on breath-in, diminished menthol burn | Average Increase ([1]; 5 ppm Menthol + 5 ppm test substance): 66% | inherent cooling (taste observation) (cooling; 5 ppm in water): taste neutral, slightly drying, no cooling | inherent cooling (taste observation) (cooling; 25 ppm in water): drying, not cooling

COc1ccc([C@@H]2CC(=O)c3c(O)cc(O)cc3O2)cc1O [Hesperetin]
Taste Descriptors [1, 2]: Sweet, no impact on cooling, slightly bitter, drying, cooling is delocalized and about the same strength as control | Average Increase [1, 3]: 0%

CCNC(=O)C1CC(C)CCC1C(C)C (stereo not drawn) [WS-3]
relative cooling strength (cooling strength): 10.0

CCOC(=O)CNC(=O)[C@@H]1C[C@H](C)CC[C@H]1C(C)C [WS-5]
relative cooling strength (cooling strength): about 16.7
